Several values for one entry are separate records, joined by “and”; a condition that tells them apart may be missing. Identical values can stand only once.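 Step 1: Grow cells in 96-well plates. Step 2: Expose to compound for 48 hours at 5 concentrations. Step 3: Interpolate endpoints linearly; if unreached, use highest concentration. The concentration for 50% growth inhibition is given as GI50. TGI is the concentration that stops growth completely.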

In PubChem BioAssay (NCI) one finds TGI and GI50 data, which are given here for 28 compounds.

What all share (test): NCI-60 cell line screen, 48 h
Assay [1] concerns ACHN renal.
The test system of assay [2] is HCC-2998 colon.
Assay [3] relates to HOP-62 NSCLC.
In assay [4] the test system is HT29 colon.
For assay [5], the system named is LOX IMVI melanoma.
Assay [6] relates to NCI-H522 lung.
For assay [7], the system named is OVCAR-4 ovarian.
Assay [8] relates to RXF 393 renal.
The test system of assay [9] is TK-10 renal.
Assay [10] concerns MDA-MB-435.

With `N#Cc1cccnc1Cl`, the TGI in assay [1] is above 100 µM; in assay [2] it was above 100 µM; in [3] it was above 31.6 µM; in assay [4], above 100 µM; in assay [5] it was above 100 µM; in assay [6] it was above 100 µM. Also, the TGI in assay [7], in assay [8] and in [9] was above 100 µM in each case.
With `O=C(NCO)NCOCn1c(=O)n(CO)c(=O)n(CO)c1=O`, the TGI in assay [1] was above 100 µM; in [2] it was above 100 µM; in assay [3], above 100 µM; in assay [4], 99.7 µM; in assay [5], 37.3 µM; in [7], above 77 µM. The results for the TGI in assay [8] and in assay [9] were 30.8 µM and above 100 µM, respectively.
`Clc1ccc2c(c1)-c1c3c(nn1-c1ccccc1)-c1ccccc1SC3O2` (stereo unspecified): the TGI was above 100 µM in assay [1]; above 100 µM in assay [2]; above 100 µM in assay [3]; above 100 µM in assay [4]; above 100 µM in [5]; 87.5 µM in [6]. In addition, the TGI in [8] and in assay [9] was above 100 µM each time.
On to `CN(C)c1cc[c]([Sn]([c]2ccc(N(C)C)cc2)([c]2ccc(N(C)C)cc2)[c]2ccc(N(C)C)cc2)cc1`, for which the GI50 was 14.5 µM in assay [1]; 4.32 µM in [2]; 2.91 µM in assay [4]; 2.89 µM in assay [5]; 7.65 µM in assay [7]; 15.7 µM in assay [9]. Moreover, the TGI worked out at 34.2 µM in assay [1]; 18.9 µM in [2]; 12.7 µM in assay [4]; 20.7 µM in assay [7]; 31.4 µM in assay [9].
Take `CN(CCC#N)c1ccc(/C=C(\C#N)c2ccc(Br)cc2)cc1`: the GI50 in assay [1] is above 100 µM; in assay [4], 3.16 µM; in assay [10], 1.97 µM; in assay [7] it was above 100 µM; in assay [8], 3.37 µM; in [9], above 100 µM. For the same compound, the TGI in assay [1], in assay [4], in assay [10], in assay [7], in assay [8] and in assay [9] was above 100 µM each time.
On to `CCCSc1nc(COC(=O)NC)c(COC(=O)NC)n1C`, for which the TGI is 72.3 µM in assay [1]; above 100 µM in assay [2]; above 100 µM in assay [3]; above 100 µM in assay [4]; above 100 µM in assay [5]; 45.1 µM and > 100 µM in assay [6]. The TGI in assay [7] and in [8] was above 100 µM in each case. The GI50 in [6] is 22.1 µM and 55.5 µM.
Consider `Cc1c(C(=O)/C=C/c2ccccc2)[n+](=O)c2ccccc2n1[O-]`, for which the TGI came to 33.6 µM in assay [1]; 30.2 µM in assay [2]; 37.9 µM in assay [3]; 35.7 µM in assay [4]; 28.3 µM in [5]; 19.4 µM in [6]. The TGI is 33 µM in assay [7], 20.9 µM in assay [8] and 51.1 µM in [9].
Consider `C=CC/C=C/C/C=C/CCCCCCCc1cccc(O)c1C(=O)O`, for which the TGI in [1] was above 100 µM; in assay [2] it was above 100 µM; in assay [3] it was 67.5 µM; in assay [4], above 100 µM; in assay [5], above 100 µM; in assay [6], above 100 µM. Moreover, the TGI in assay [7] and in [9] was above 100 µM throughout.
Turning to `O=C1[C@@H]2C(c3ccccc3F)=NO[C@@H]2C(=O)N1c1ccc(Cc2ccc(N3C(=O)[C@H]4C(c5ccccc5F)=NO[C@H]4C3=O)cc2)cc1`, the TGI in assay [1], in assay [2], in [3], in assay [4], in assay [5] and in [6] was above 100 µM in each case. Moreover, the TGI is above 100 µM in assay [7], above 81.3 µM in [8] and above 31.6 µM in assay [9].
As to `c1ccc(C2Nc3ccccc3C3OCCCC23)cc1` (stereo unspecified), the TGI in assay [1] was above 100 µM; in [2], above 100 µM; in assay [5], 35.3 µM; in assay [7] it was above 100 µM; in [8], 50.4 µM.
For the compound `COc1c(CCl)cc(-c2cc(=O)c3ccccc3s2)cc1CCl`, the TGI in assay [1] is above 100 µM; in assay [3], 32.6 µM; in assay [10], above 100 µM; in assay [7], 16.4 µM; in assay [8], 3.2 µM; in [9], 99.7 µM.
`CSC(C1c2ccccc2N(c2ccc(C)cc2)c2[nH]c(=O)n(C)c(=O)c21)S(=O)(=O)c1ccc(C)cc1` (stereo unspecified): the TGI in assay [2], in assay [3], in [4], in assay [5], in assay [6] and in assay [7] was above 100 µM throughout. Also, the TGI in assay [9] was above 100 µM.
For the compound `C1C[OH+]CC[OH+]CC[OH+]CC[OH+]CC[OH+]1.[Cl-].[V]`, the GI50 in [1] is 75 µM; in assay [2], above 100 µM; in [4] it was above 100 µM; in assay [5] it was 30.6 µM; in assay [6] it was above 100 µM; in assay [7], 6.03 µM. For the same compound, the GI50 in [8] was 18.1 µM; in assay [9], 83.5 µM. Further, the TGI in assay [1] is above 100 µM; in assay [2], above 100 µM; in assay [4] it was above 100 µM; in assay [5], above 100 µM; in assay [6], above 100 µM; in assay [7], 41.6 µM. For the same compound, the results for the TGI in [8] and in [9] were 36.9 µM and above 100 µM, respectively.
As for `C1CCC([PH+](C2CCCCC2)C2CCCCC2[PH+](C2CCCCC2)C2CCCCC2)CC1.O=C(C1[CH-]CCCC1)C1CCCC[N-]1.[Au]` (stereo unspecified), the GI50 in assay [1] was 0.92 µM; in assay [3], 0.323 µM; in assay [10] it was 0.229 µM; in assay [8], 0.317 µM. Further, the TGI in assay [1] amounted to 2.12 µM; in [3], 2.96 µM; in assay [10] it was 0.704 µM; in assay [8] it was 1.38 µM.
Regarding `O=C(Nc1c(Cl)cc([N+](=O)[O-])cc1Cl)C(=O)C(C1OC(=O)c2ccccc21)[N+](=O)[O-]` (stereo unspecified), the TGI in assay [1], in assay [2], in assay [3], in assay [4], in assay [5] and in assay [7] was above 100 µM in each case. Besides, the TGI in assay [8] and in [9] was above 100 µM in each case.
`COc1cc(/C=C(\C#N)c2ccccc2)cc(OC)c1`: the TGI in assay [1] is above 100 µM; in [2], above 100 µM; in assay [3], above 100 µM; in assay [4], above 100 µM; in assay [5], 65.4 µM; in assay [6], above 100 µM. In addition, the TGI in assay [7] and in assay [9] was above 100 µM in each case.
With `O=C1OC2CCCC[C@@H]2C2C[C@]34CCCCC3[C@@H](C(=O)O4)C12` (stereo partly specified), the TGI in [1], in assay [2], in assay [3], in assay [4], in [5] and in [6] was above 100 µM each time. In addition, the TGI in assay [7], in [8] and in assay [9] was above 100 µM in each case.
With `C/C(CC(=O)NCCc1ccccc1)=N\NC(=O)C[n+]1ccccc1`, the TGI in assay [1], in [2], in assay [3], in [4], in assay [5] and in [6] was above 100 µM throughout. The TGI in assay [8] and in assay [9] was above 100 µM throughout.
As to `CCN(CC)c1ccc(N=Nc2ccc(-c3nc4ccc[n+](C)c4s3)cc2)cc1`, the TGI in assay [3] was 38.9 µM; in [4], 18.5 µM; in assay [5], 15.8 µM; in [6] it was 28.5 µM; in [7] it was 20 µM; in assay [9], 34.5 µM.
Consider `COc1ccc(OC)c2c(C(=O)O)c(Cc3ccccc3)ccc12`, for which the TGI in assay [1], in assay [2], in [3], in [4], in [5] and in [6] was above 100 µM each time. Moreover, the TGI in [7], in assay [8] and in assay [9] was above 100 µM throughout.
Turning to `CCOC(=O)NC(=O)c1cn(CCCOC(=O)CCCCCCCCCCC(=O)OCCCn2cc(C(=O)NC(=O)OCC)c(=O)[nH]c2=O)c(=O)[nH]c1=O`, the TGI in [1], in assay [2], in assay [3], in assay [4], in assay [5] and in assay [7] was above 100 µM each time. This compound registered a TGI in [9] above 100 µM.
For the compound `CCCCCCCCCCCCCCCCCCOc1ccccc1CC(=O)OCC[N+]1(C)CCCC1`, the GI50 was 4 µM in assay [1]; 1.8 µM in [5]; 1.73 µM in [10]; 2.94 µM in assay [7]; 1.35 µM in assay [8]; 1.52 µM in [9]. Besides, the TGI in assay [1] came out at 16.4 µM; in assay [5], 3.36 µM; in assay [10], 3.31 µM; in assay [7] it was 12.1 µM; in [8] it was 2.76 µM; in assay [9], 3.08 µM.
With `S=C1OC2CCCC[C@H]2O1` (stereo partly specified), the TGI in assay [1], in assay [2], in [3], in assay [4], in assay [5] and in assay [6] was above 100 µM throughout. For the same compound, the TGI in [7], in assay [8] and in [9] was above 100 µM throughout.
For the compound `Cc1ncc(CCCN(C)C)cc1Nc1ncc2c(n1)-c1ccc(C(F)(F)F)cc1NC(=S)C2`, the GI50 is 0.0892 µM in assay [1]; 0.0135 µM in [2]; below 0.0155 µM in assay [3]; below 0.0168 µM in [4]; 0.0276 µM in [5]; below 0.01 µM in assay [6]. The figures for the GI50 in assay [7] and in [9] were 1.22 µM and 0.65 µM, respectively. The TGI was above 53.6 µM in assay [1]; 10.3 µM in assay [2]; 1.54 µM in [3]; 10.2 µM in assay [4]; 15.1 µM in assay [5]; 18.1 µM in assay [6]. Also, the TGI in assay [7] was above 100 µM; in [9], 19.8 µM.
In the case of `CCCCCCCCCCCC(=O)OCC1OC(OC)C(NC(=O)N(CCCl)N=O)C(O)C1O` (stereo unspecified), the TGI in assay [1] was 35.6 µM; in [2], 33.2 µM; in assay [3] it was 42.9 µM; in assay [4], 31.2 µM; in [5], 21.6 µM; in assay [6], 24.7 µM. The results for the TGI in assay [7], in assay [8] and in assay [9] were 37.6 µM, 26.4 µM and 61 µM, respectively.
Regarding `O=C1CC2CCCC23CC2(CCN13)OCCO2` (stereo unspecified), the TGI in [1], in assay [2], in [3], in assay [4], in assay [5] and in assay [6] was above 100 µM each time. Moreover, the TGI in assay [7], in assay [8] and in assay [9] was above 100 µM each time.
As for `N#CC1CC2(C1)OCCS2` (stereo unspecified), the TGI in [1], in assay [2], in assay [3], in [4], in assay [5] and in [6] was above 100 µM in each case. The TGI in assay [7], in assay [8] and in assay [9] was above 100 µM in each case.
Turning to `CC(C)(C)c1cc(C(O)(C(F)(F)F)C(F)(F)F)c2c(c1)C(C(F)(F)F)(C(F)(F)F)OC(C(C)(C)C)N2` (stereo unspecified), the TGI in assay [1] was found to be 10.2 µM; in assay [2], 15.7 µM; in assay [4], 9.37 µM; in assay [6], 7.39 µM; in assay [7], 18 µM; in [8] it was 6.51 µM. This compound also showed a TGI in assay [9] of 11.9 µM.
